{"source": "patent US6399583B1", "about": "“Hybrid anthracyclines from genetically engineered streptomyces galilaeus strains, process for production and uses thereof” (Galilaeus Oy, priority 1998, dated 2002)", "key": {"[1]": {"test_system": "MES-SA/D×5 uterine sarcoma cells (doxorubicin-resistant, MDR)", "assay": "Cytotoxicity assay, luminescence ATP detection, MES-SA/D×5", "type": "cell-based, human", "conditions": "MES-SA/D×5 cells, three days incubation, ATP content, highest concentration 10^-5 M, read-out: ED50 (nM) MES-SA/D × 5", "method": "The cytotoxicities of the new anthracyclines were tested in vitro with two cell lines: human uterine sarcomas MES-SA (CRL-1976; American Type Culture Collection (ATCC), Rockville, Md., USA) and MES-SA/D×5 (CRL-1977; ATCC, Rockville, Md., USA). MES-SA/D×5 has been developed by growing MES-SA cells in increasing concentrations of doxorubicin (Harker and Sikic, 1985).\nMonolayer cultures were grown in McCoy's 5A medium with L-glutamine (Gibco BRL) supplemented with 10% FBS (Foetal Bovine Serum, Gibco BRL). No antibiotics were added. As the resistance is stable for at least 20 passages, the MES-SA/D×5 cells were grown without anthracycline selection (Harker and Sikic, 1985). Cells were maintained at 37° C. with 5% CO2 and subcultured every 3-5 days.\n(§1) The cytotoxicity tests were performed in 96-well microtiter plates (sterile white plates with clear bottom, Corning Costar Corporation, Cambridge, Mass., USA). The anthracyclines were pipetted into the plates in 10 μl of ethanol, pure ethanol was used for control plates. Daunorubicin and aclarubicin were used as positive controls. When the ethanol had evaporated, the cells were seeded into the plates in 100 μl of appropriate medium. The number of cells seeded per well was 2500 with MES-SA, 3000 with MES-SA/D×5, 3000 with LL/2, 2000 with B16-F0 and B16-F1, 2000 with KLN-205 and 8000 with MLTC-1. The ATP content of the cells was measured after incubating the cells for three days at 37° C. with 5% CO2.\n(§2) The growth medium was removed by turning the plates over, and 200 μl of ATP extraction reagent, Somalyze, were added to the wells. The plates were then incubated for 30 minutes at room temperature. The ATP measurement was performed with Luminoskan luminometer (Labsystems Oy, Helsinki, Finland) at 22° C. 20 μl of ATP monitoring reagent containing luciferin and luciferase was dispensed, and an integral measurement of 10 s with 2 s lag time was performed for each well. All reagents used were supplied by Bio-Orbit Oy, Turku, Finland.\n(§3) The direct luminometer output (in relative light units, RLUS) was used to calculate the cytotoxic effect. This light signal is directly proportional to the amount of […] in a wide range (determined with Bio-Orbit ATP standard, data not shown). On the other hand, the amount of ATP is directly proportional to the amount of living cells (Kangas et al., 1984). The results are expressed as percentages of the control value of untreated cells. An IC50 value (the drug concentration resulting to an ATP signal of 50% of the untreated control signal) was graphically estimated from the % of control vs. drug concentration plot."}, "[2]": {"test_system": "MLTC-1 leydig cell tumor", "assay": "Cytotoxicity assay, ATP detection, MLTC-1", "type": "cell-based, mouse", "conditions": "MLTC-1 cells in vitro, read-out: ED50 MLTC-1", "method": "as §1, §2, §3\nH075-4a was also tested with several mouse cell lines in vitro (all were purchased from ATCC, Rockville, Md., USA): Lewis lung carcinoma (LL/2) (CRL-1642), B16-F0 melanoma (CRL-6322), B16-F1 melanoma (CRL-6323), KLN-205 lung squamous cell carcinoma (CRL-1453) and MLTC-1 leydig cell tumor (CRL-2065) using daunomycin, aclarubicin and H075-1a (MA 144U1) as references.\nAll cells grew as monolayers and were cultured at 37° C. with 5% CO2 according to ATCC standard instructions for each cell line: LL/2 in Dulbecco's modified Eagle's medium with 4.5 g/l glucose and 10% FCS, B16-F0 and B16-F1 in MEM (Eagle) in Earle's BSS with non-essential amino acids and 10% FCS, KLN-205 in MEM (Eagle) in Earle's BSS with non-essential amino acids and 10% FCS, MLTC-1 in RPMI 1640 with 25 mM HEPES and 10% FBS. All media were purchased from Gibco BRL, the serum was Gibco BRL Foetal Bovine Serum. […]"}, "[3]": {"test_system": "SK-N-MC", "assay": "Cytotoxicity assay, ATP detection, SK-N-MC", "type": "cell-based", "conditions": "SK-N-MC cells in vitro; read-out: ED50 SK-N-MC"}, "[4]": {"test_system": "L1210 mouse lymphocytic leukemia cells", "assay": "Flow cytometry (mode of action), cell cycle phases", "type": "cell-based", "conditions": "for G1 (%) / G2 (%) / S + M (%) / Cells (1000/ml): L1210 cells, 24 h incubation; for G1 (%): percentage of cells in phase G1; for G2 (%): percentage of cells in phase G2; for S + M (%): percentage of cells in phases S + M; for Cells (1000/ml): starting cell number 46000 cells/ml", "method": "L1210 mouse lymphocytic leukemia cells growing in suspension culture were maintained at exponential growth in Dulbecco's modified Eagle's medium with 4.5 g/l glucose and 10% FBS, at 37° C. with 5% CO2. The experiments were started by adding the ethanol-dissolved anthracyclines, in amounts yielding to the appropriate final concentrations, to 25 cm^2 cell culture flasks. After the ethanol had evaporated, 5 ml of an approximately 50 000 cells per ml suspension was added to the flasks. Flow cytometric analysis was made of the original cell suspension and after one, two and three days incubation with or without the drugs.\nCells were prepared for flow cytometric DNA analysis according to the method of Vindelov et al. (1985). The analysis was performed with an Epics XL flow cytometer (Coulter Corporation, Miami, Fla.). Samples were illuminated with a […] air-cooled argon ion laser (488 nm) and the fluorescence of propidium iodide was detected through 620-nm band pass filter. The number of cells in each sample was separately counted by adding an internal calibrator (50 μl of a solution containing 1×10^6 Fluoresbrite beads/ml) to 50 μl of cell suspension.\nBased on the flow cytometric studies, the cell cycle phases for the cells studied could be detected. Phase G1 is the stage for RNA and protein synthesis, but not for replication. Transition from phase G1 to phase S means the initiation of replication, and the phase will last until all of the DNA has been replicated. The period from phase S up to mitosis (M) is phase G2."}}, "note": "Where two headings read alike, the source gives them in different places."}
{"smiles": "CCC1(O)CC(OC2CC(N(C)C)C(OC3CC(O)C(OC4CC(O)C(O)C(C)O4)C(C)O3)C(C)O2)c2c(O)c3c(c(O)c2C1C(=O)OC)C(=O)c1cccc(O)c1C3=O", "note": "(centres unmarked) [Compound H075-4a]", "values": [{"measurement": "EC50", "setting": "[1]", "result": 50, "unit": "nM"}, {"measurement": "EC50", "setting": "[2]", "result": 0.06, "unit": "µM"}, {"measurement": "EC50", "setting": "[3]", "result": 0.009, "unit": "µM"}, {"measurement": "G1 (%)", "setting": "[4]; concentration 1 × 10^−8M", "result": 40, "unit": "%"}, {"measurement": "G2 (%)", "setting": "[4]; concentration 1 × 10^−8M", "result": 12, "unit": "%"}, {"measurement": "S + M (%)", "setting": "[4]; concentration 1 × 10^−8M", "result": 48, "unit": "%"}, {"measurement": "Cells (1000/ml)", "setting": "[4]; concentration 1 × 10^−8M", "result": "88 1000/ml"}, {"measurement": "G1 (%)", "setting": "[4]; concentration 3.3 × 10^−8M", "result": 45, "unit": "%"}, {"measurement": "G2 (%)", "setting": "[4]; concentration 3.3 × 10^−8M", "result": 19, "unit": "%"}, {"measurement": "S + M (%)", "setting": "[4]; concentration 3.3 × 10^−8M", "result": 36, "unit": "%"}, {"measurement": "Cells (1000/ml)", "setting": "[4]; concentration 3.3 × 10^−8M", "result": "67 1000/ml"}, {"measurement": "cell cycle phase in which cells are arrested", "setting": "[4]; flow cytometric DNA analysis", "result": "arrested the cells in phase G1"}]}
{"smiles": "COc1cccc2c1C(=O)c1c(O)c3c(c(O)c1C2=O)C[C@@](O)(C(C)=O)C[C@@H]3O[C@H]1C[C@H](N)[C@H](O)[C@H](C)O1", "note": "[Daunorubicin]", "values": [{"measurement": "EC50", "setting": "[1]; Homo sapiens, 72 h", "result": 220, "unit": "nM"}, {"measurement": "EC50", "setting": "[2]; Mus musculus, Leydig", "result": 0.9, "unit": "µM"}, {"measurement": "EC50", "setting": "[3]", "result": 0.003, "unit": "µM"}, {"measurement": "G1 (%)", "setting": "[4]; concentration 1 × 10^−8M", "result": 11, "unit": "%"}, {"measurement": "G2 (%)", "setting": "[4]; concentration 1 × 10^−8M", "result": 38, "unit": "%"}, {"measurement": "S + M (%)", "setting": "[4]; concentration 1 × 10^−8M", "result": 51, "unit": "%"}, {"measurement": "Cells (1000/ml)", "setting": "[4]; concentration 1 × 10^−8M", "result": "66 1000/ml"}, {"measurement": "G1 (%)", "setting": "[4]; concentration 3.3 × 10^−8M", "result": 6, "unit": "%"}, {"measurement": "G2 (%)", "setting": "[4]; concentration 3.3 × 10^−8M", "result": 66, "unit": "%"}, {"measurement": "S + M (%)", "setting": "[4]; concentration 3.3 × 10^−8M", "result": 27, "unit": "%"}, {"measurement": "Cells (1000/ml)", "setting": "[4]; concentration 3.3 × 10^−8M", "result": "23 1000/ml"}]}
